Here are results for 40 compounds from patent publication US20250320184A1 (SIRONAX LTD., priority 2022, published 2025).

In the assay the target is T1, SARM1 (50-724) (Homo sapiens, UniProt Q6SZW1).
T1 sequence (Q6SZW1 50-724): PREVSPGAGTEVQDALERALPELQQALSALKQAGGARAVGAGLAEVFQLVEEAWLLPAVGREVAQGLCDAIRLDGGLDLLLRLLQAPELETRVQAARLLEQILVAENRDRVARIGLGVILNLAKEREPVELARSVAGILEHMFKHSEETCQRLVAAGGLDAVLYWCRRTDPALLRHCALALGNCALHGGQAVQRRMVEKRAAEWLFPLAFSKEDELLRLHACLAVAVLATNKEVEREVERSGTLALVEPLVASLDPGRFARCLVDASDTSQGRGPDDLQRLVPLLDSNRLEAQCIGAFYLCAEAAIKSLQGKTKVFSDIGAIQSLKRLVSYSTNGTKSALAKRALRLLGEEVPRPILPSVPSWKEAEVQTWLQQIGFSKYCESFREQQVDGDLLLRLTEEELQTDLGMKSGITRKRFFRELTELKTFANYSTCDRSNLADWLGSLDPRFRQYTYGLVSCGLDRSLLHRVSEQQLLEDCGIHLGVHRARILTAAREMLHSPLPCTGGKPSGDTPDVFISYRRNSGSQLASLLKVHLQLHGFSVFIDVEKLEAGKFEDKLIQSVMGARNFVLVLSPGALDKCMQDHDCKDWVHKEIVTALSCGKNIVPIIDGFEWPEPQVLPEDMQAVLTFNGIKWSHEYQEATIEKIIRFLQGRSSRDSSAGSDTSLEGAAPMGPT
Put plainly: biochemical.
Procedure: An enzymatic assay was performed in a 384-well plate using Dulbecco's phosphate-buffered saline (PBS) as the reaction buffer. […] The reaction was initiated by adding a mixture of 200 μM nicotinamide mononucleotide (NMN) as activator and 100 μM NAD^+ as substrate. After 1 h of incubation at room temperature, the reaction was terminated with 10 times volume of 70% acetonitrile, then centrifuged at 3800 rpm for 10 min.
Compound `O=S(=O)(Nc1ccc2sc(Cl)nc2c1)c1cccc(Cl)c1Cl` [Compound 33, 2,3-dichloro-N-(2-chlorobenzo[d]thiazol-5-yl)benzenesulfonamide] showed a 50% inhibitory concentration (IC50) of 100 to 500 nM. As to `O=C1NCCc2ccc(NS(=O)(=O)c3cc(F)c(F)c(F)c3)cc21` [Compound 34, 3,4,5-trifluoro-N-(1-oxo-1,2,3,4-tetrahydroisoquinolin-7-yl)benzenesulfonamide], the IC50 was > 1000 nM. Turning to `O=C1NCCc2ccc(NS(=O)(=O)c3cc(F)c(F)cc3F)cc21` [Compound 35, 2,4,5-trifluoro-N-(1-oxo-1,2,3,4-tetrahydroisoquinolin-7-yl)benzenesulfonamide], the IC50 was > 1000 nM. To `O=C1NCCc2ccc(NS(=O)(=O)c3ccc(F)c(F)c3F)cc21` [Compound 36, 2,3,4-trifluoro-N-(1-oxo-1,2,3,4-tetrahydroisoquinolin-7-yl)benzenesulfonamide] belongs 100 to 500 nM. With `Cc1ccc(Cl)c(S(=O)(=O)Nc2ccc3cc[nH]c(=O)c3c2)c1Cl` [Compound 37, 2,6-dichloro-3-methyl-N-(1-oxo-2H-isoquinolin-7-yl)benzenesulfonamide], the IC50 was < 100 nM. To `O=C1NCCc2ccc(NS(=O)(=O)c3c(F)cc(F)cc3F)cc21` [Compound 38, 2,4,6-trifluoro-N-(1-oxo-3,4-dihydro-2H-isoquinolin-7-yl)benzenesulfonamide] belongs > 1000 nM; to `Cc1c(Cl)cccc1S(=O)(=O)Nc1ccc2c(c1)C(=O)NCCC2` [Compound 39, 3-chloro-2-methyl-N-(1-oxo-2,3,4,5-tetrahydro-1H-benzo[c]azepin-8-yl)benzenesulfonamide], < 100 nM. For the compound `Cc1c(Br)cccc1S(=O)(=O)Nc1ccc2c(c1)C(=O)NCCC2` [Compound 40, 3-bromo-2-methyl-N-(1-oxo-2,3,4,5-tetrahydro-1H-benzo[c]azepin-8-yl)benzenesulfonamide], the IC50 is < 100 nM.

As to `O=C1NCCCc2ccc(NS(=O)(=O)c3cccc(Cl)c3Cl)cc21` [Compound 41, 2,3-dichloro-N-(1-oxo-2,3,4,5-tetrahydro-1H-benzo[c]azepin-8-yl)benzenesulfonamide], the IC50 is < 100 nM.

Consider `O=S(=O)(Nc1ccc2cccnc2c1)c1cccc(Cl)c1Cl` [Compound 42, 2,3-dichloro-N-(quinolin-7-yl)benzenesulfonamide], for which the IC50 is < 100 nM. As for `O=S(=O)(Nc1ccc2ccncc2c1)c1cccc(Cl)c1Cl` [Compound 43, 2,3-dichloro-N-(isoquinolin-7-yl)benzenesulfonamide], the figure is 100 to 500 nM; as for `O=S(=O)(Nc1ccc2ccccc2c1)c1cccc(Cl)c1Cl` [Compound 44, 2,3-dichloro-N-(naphthalen-2-yl)benzenesulfonamide], 100 to 500 nM; as for `Cc1c(Cl)cc(F)cc1S(=O)(=O)Nc1ccc2cc[nH]c(=O)c2c1` [Compound 45, 3-chloro-5-fluoro-2-methyl-N-(1-oxo-1,2-dihydroisoquinolin-7-yl)benzenesulfonamide], < 100 nM.

`Cc1c(F)cccc1S(=O)(=O)Nc1cccc(N2CCNC2=O)c1` [Compound 46, 3-fluoro-2-methyl-N-(3-(2-oxoimidazolidin-1-yl)phenyl)benzenesulfonamide]: the IC50 is > 1000 nM.

For the compound `O=C1NCCc2cc(Cl)c(NS(=O)(=O)c3cccc(Cl)c3Cl)cc21` [Compound 47, 2,3-dichloro-N-(6-chloro-1-oxo-1,2,3,4-tetrahydroisoquinolin-7-yl)benzenesulfonamide], the IC50 was > 1000 nM. To `O=C1NCCc2ccc(NS(=O)(=O)N3CC4CCCC4C3)cc21` (stereo not shown) [Compound 49, N-(1-oxo-3,4-dihydro-2H-isoquinolin-7-yl)-3,3a,4,5,6,6a-hexahydro-1H-cyclopenta[c]pyrrole-2-sulfonamide] belongs > 1000 nM; to `Cc1cccc(S(=O)(=O)Nc2ccc3c(c2)C(=O)NCC3)c1C` [Compound 50, 2,3-dimethyl-N-(1-oxo-1,2,3,4-tetrahydroisoquinolin-7-yl)benzenesulfonamide], 100 to 500 nM. As for `O=C1NCCc2ccc(NS(=O)(=O)c3cc(F)cc(F)c3F)cc21` [Compound 51, 2,3,5-trifluoro-N-(1-oxo-3,4-dihydro-2H-isoquinolin-7-yl)benzenesulfonamide], the figure is > 1000 nM. To `Cn1ncc2ccc(NS(=O)(=O)c3cccc(Cl)c3Cl)cc21` [Compound 52, 2,3-dichloro-N-(1-methyl-1H-indazol-6-yl)benzenesulfonamide] belongs 100 to 500 nM; to `O=C1NCCc2ccc(NS(=O)(=O)c3cccc(F)c3Cl)cc21` [Compound 53, 2-chloro-3-fluoro-N-(1-oxo-1,2,3,4-tetrahydroisoquinolin-7-yl)benzenesulfonamide], 100 to 500 nM; to `O=C1NCCc2ccc(NS(=O)(=O)c3cccc(F)c3F)cc21` [Compound 54, 2,3-difluoro-N-(1-oxo-1,2,3,4-tetrahydroisoquinolin-7-yl)benzenesulfonamide], > 1000 nM. As to `O=C1CCCc2ccc(NS(=O)(=O)c3cccc(Cl)c3Cl)cc21` [Compound 55, 2,3-dichloro-N-(8-oxo-5,6,7,8-tetrahydronaphthalen-2-yl)benzenesulfonamide], the IC50 was < 100 nM. As for `O=c1[nH]cc(Br)c2ccc(NS(=O)(=O)c3cccc(Cl)c3Cl)cc12` [Compound 57, N-(4-bromo-1-oxo-1,2-dihydroisoquinolin-7-yl)-2,3-dichlorobenzenesulfonamide], the figure is 100 to 500 nM; as for `Cc1n[nH]c2cc(NS(=O)(=O)c3cccc(Cl)c3Cl)ccc12` [Compound 58, 2,3-dichloro-N-(3-methyl-1H-indazol-6-yl)benzenesulfonamide], < 100 nM; as for `O=S(=O)(Nc1ccc2csnc2c1)c1cccc(Cl)c1Cl` [Compound 59, N-(benzo[c]isothiazol-6-yl)-2,3-dichlorobenzenesulfonamide], 100 to 500 nM. To `O=S(=O)(Nc1ccc2ccccc2n1)c1cccc(Cl)c1Cl` [Compound 60, 2,3-dichloro-N-(quinolin-2-yl)benzenesulfonamide] belongs > 1000 nM; to `Cc1cccc(F)c1S(=O)(=O)Nc1ccc2c(c1)C(=O)NCC2` [Compound 61, 2-fluoro-6-methyl-N-(1-oxo-1,2,3,4-tetrahydroisoquinolin-7-yl)benzenesulfonamide], > 1000 nM; to `O=c1[nH]cc(F)c2ccc(NS(=O)(=O)c3cccc(Cl)c3Cl)cc12` [Compound 62, 2,3-dichloro-N-(4-fluoro-1-oxo-1,2-dihydroisoquinolin-7-yl)benzenesulfonamide], < 100 nM. The compound `N#Cc1c[nH]c(=O)c2cc(NS(=O)(=O)c3cccc(Cl)c3Cl)ccc12` [Compound 63, 2,3-dichloro-N-(4-cyano-1-oxo-1,2-dihydroisoquinolin-7-yl)benzenesulfonamide] displayed a half-maximal inhibitory concentration (IC50) of 100 to 500 nM.

Turning to `O=S(=O)(Nc1cccc(-c2ncco2)c1)c1cccc(Cl)c1Cl` [Compound 64, 2,3-dichloro-N-(3-oxazol-2-ylphenyl)benzenesulfonamide], the half-maximal inhibitory concentration (IC50) lay within 100 to 500 nM.

On to `CC(C)c1c[nH]c(=O)c2cc(NS(=O)(=O)c3cccc(Cl)c3Cl)ccc12` [Compound 66, 2,3-dichloro-N-(4-isopropyl-1-oxo-1,2-dihydroisoquinolin-7-yl)benzenesulfonamide], for which the half-inhibitory concentration (IC50) is > 1000 nM. Compound `COC(=O)Cc1ccc(NS(=O)(=O)c2cccc(Cl)c2Cl)cc1` [Compound 67] returned an IC50 of 100 to 500 nM. To `O=c1[nH]ccc2ccc(NS(=O)(=O)c3c(Cl)ccc(Cl)c3Cl)cc12` [Compound 68, 2,3,6-trichloro-N-(1-oxo-1,2-dihydroisoquinolin-7-yl)benzenesulfonamide] belongs < 100 nM. To `O=c1[nH]ccc2ccc(NS(=O)(=O)c3ccc(F)c(Cl)c3Cl)cc12` [Compound 69, 2,3-dichloro-4-fluoro-N-(1-oxo-1,2-dihydroisoquinolin-7-yl)benzenesulfonamide] belongs < 100 nM; to `O=c1[nH]ccc2ccc(NS(=O)(=O)c3c(F)ccc(Cl)c3Cl)cc12` [Compound 70, 2,3-dichloro-6-fluoro-N-(1-oxo-1,2-dihydroisoquinolin-7-yl)benzenesulfonamide], < 100 nM.

`Cc1ccc2ccc(NS(=O)(=O)c3cccc(Cl)c3Cl)cc2n1` [Compound 71, 2,3-dichloro-N-(2-methylquinolin-7-yl)benzenesulfonamide] yielded an IC50 of 100 to 500 nM. As for `Cc1c2ccc(NS(=O)(=O)c3cccc(Cl)c3Cl)cc2nn1C` [Compound 72, 2,3-dichloro-N-(2,3-dimethyl-2H-indazol-6-yl)benzenesulfonamide], the figure is < 100 nM; as for `Cc1n[nH]c2cc(NS(=O)(=O)c3cccc(Cl)c3Cl)cc(F)c12` [Compound 73, 2,3-dichloro-N-(4-fluoro-3-methyl-1H-indazol-6-yl)benzenesulfonamide], < 100 nM; as for `O=S(=O)(Nc1cc(F)c2cn[nH]c2c1)c1cccc(Cl)c1Cl` [Compound 74, 2,3-dichloro-N-(4-fluoro-1H-indazol-6-yl)benzenesulfonamide], 100 to 500 nM.

For the compound `O=S(=O)(Nc1ccc2c(F)n[nH]c2c1)c1cccc(Cl)c1Cl` [Compound 75, 2,3-dichloro-N-(3-fluoro-1H-indazol-6-yl)benzenesulfonamide], the IC50 was < 100 nM.
